Laboratory results taken from ChEMBL document CHEMBL4732071, “Discovery of selective HDAC/BRD4 dual inhibitors as epigenetic probes” (Eur J Med Chem, 2021).
The source made the active and inactive calls. No cut-off for these calls is given here.

Legend:
[1] = target: T1, Bromodomain-containing protein 4 (Homo sapiens, UniProt O60885); assay: Inhibition of His-tagged BRD4 bromodomain 1 (unknown origin) using [Lys (5,8,12,16) Ac] H4(1-21) as substrate by fluorescence based assay
[2] = target: T2, Protein deacetylase HDAC6 (Homo sapiens, UniProt Q9UBN7); assay: Inhibition of HDAC6 (unknown origin) by fluorescence based assay
T2 sequence (Q9UBN7 whole entry): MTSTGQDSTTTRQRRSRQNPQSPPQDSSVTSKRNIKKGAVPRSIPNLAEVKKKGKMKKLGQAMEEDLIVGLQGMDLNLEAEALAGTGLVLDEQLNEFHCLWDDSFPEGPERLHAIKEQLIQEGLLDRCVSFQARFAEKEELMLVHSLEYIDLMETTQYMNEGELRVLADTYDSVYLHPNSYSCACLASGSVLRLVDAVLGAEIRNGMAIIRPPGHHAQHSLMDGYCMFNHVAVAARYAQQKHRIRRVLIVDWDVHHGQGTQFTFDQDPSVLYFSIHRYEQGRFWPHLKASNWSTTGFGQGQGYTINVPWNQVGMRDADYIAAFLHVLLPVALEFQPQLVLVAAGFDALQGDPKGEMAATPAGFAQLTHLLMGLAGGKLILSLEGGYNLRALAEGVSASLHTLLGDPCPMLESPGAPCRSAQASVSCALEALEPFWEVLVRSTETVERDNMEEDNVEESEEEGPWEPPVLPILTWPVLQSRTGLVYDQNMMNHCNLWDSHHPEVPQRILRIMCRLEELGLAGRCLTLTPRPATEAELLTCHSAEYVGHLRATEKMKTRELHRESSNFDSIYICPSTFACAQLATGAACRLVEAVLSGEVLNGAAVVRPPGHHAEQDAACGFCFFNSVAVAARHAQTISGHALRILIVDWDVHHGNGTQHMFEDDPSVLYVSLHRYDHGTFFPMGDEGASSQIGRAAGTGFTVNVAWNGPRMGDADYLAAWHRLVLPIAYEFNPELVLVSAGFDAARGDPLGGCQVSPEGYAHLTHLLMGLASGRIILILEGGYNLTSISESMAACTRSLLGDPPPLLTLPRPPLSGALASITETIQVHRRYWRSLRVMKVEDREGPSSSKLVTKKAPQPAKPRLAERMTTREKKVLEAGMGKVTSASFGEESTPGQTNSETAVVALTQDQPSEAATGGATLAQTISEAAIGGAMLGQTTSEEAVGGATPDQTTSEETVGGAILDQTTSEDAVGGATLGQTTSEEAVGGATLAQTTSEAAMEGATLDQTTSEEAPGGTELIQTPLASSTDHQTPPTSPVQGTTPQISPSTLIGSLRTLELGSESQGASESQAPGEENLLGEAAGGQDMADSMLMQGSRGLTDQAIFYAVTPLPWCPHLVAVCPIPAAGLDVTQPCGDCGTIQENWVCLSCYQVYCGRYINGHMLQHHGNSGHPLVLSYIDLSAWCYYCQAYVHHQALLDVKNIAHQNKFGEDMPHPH

[3] = target: T1, Bromodomain-containing protein 4; assay: Inhibition of His-tagged BRD4 bromodomain 2 (unknown origin) using [Lys (5,8,12,16) Ac] H4(1-21) as substrate by fluorescence based assay
[4] = target: T3, Histone deacetylase 1 (Homo sapiens, UniProt Q13547); assay: Inhibition of HDAC1 in human MV4-11 cells assessed as increase in acetylated H3 at 10 to 1000 nM incubated for 24 hrs by Western blot analysis; assay type: cell-based; details: dose 10-1000 nM
[5] = target: T4, Protein deacetylase HDAC6 (Homo sapiens) (UniProt Q9UBN7); assay: Inhibition of HDAC6 in human MV4-11 cells assessed as increase in acetylated alpha-tubulin at 10 to 1000 nM incubated for 24 hrs by Western blot analysis; assay type: cell-based; details: dose 10-1000 nM
T4 sequence (whole entry): T2 sequence (Q9UBN7 whole entry)

[6] = target: T3, Histone deacetylase 1; assay: Inhibition of HDAC1 (unknown origin) by fluorescence based assay
[7] = tested on: MV4-11; assay: Antiproliferative activity against human MV4-11 cells assessed as cell viability after 72 hrs by CCK8 assay; assay type: functional, cell-based; details: MV4-11, 72 h
[8] = target: T1, Bromodomain-containing protein 4; assay: Inhibition of BRD4 in human MV4-11 cells assessed as reduction in c-Myc expression at 10 to 1000 nM measured after 24 hrs by Western blot analysis; assay type: cell-based; details: dose 10-1000 nM
[9] = target: T5, Histone deacetylase 11 (Homo sapiens, UniProt Q96DB2); assay: Inhibition of HDAC11 (unknown origin) by fluorescence based assay
T5 sequence (Q96DB2 whole entry): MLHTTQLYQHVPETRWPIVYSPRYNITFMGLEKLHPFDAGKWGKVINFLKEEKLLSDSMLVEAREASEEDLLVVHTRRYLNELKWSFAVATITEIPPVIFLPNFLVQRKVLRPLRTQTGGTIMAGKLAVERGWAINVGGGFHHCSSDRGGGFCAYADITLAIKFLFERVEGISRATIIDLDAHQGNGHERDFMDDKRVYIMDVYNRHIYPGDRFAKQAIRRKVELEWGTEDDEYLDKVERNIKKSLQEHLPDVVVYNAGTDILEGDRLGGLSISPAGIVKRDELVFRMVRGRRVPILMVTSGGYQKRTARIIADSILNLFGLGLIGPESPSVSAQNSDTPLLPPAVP

[10] = target: T6, Histone deacetylase 8 (Homo sapiens, UniProt Q9BY41); assay: Inhibition of HDAC8 (unknown origin) by fluorescence based assay
T6 sequence (Q9BY41 whole entry): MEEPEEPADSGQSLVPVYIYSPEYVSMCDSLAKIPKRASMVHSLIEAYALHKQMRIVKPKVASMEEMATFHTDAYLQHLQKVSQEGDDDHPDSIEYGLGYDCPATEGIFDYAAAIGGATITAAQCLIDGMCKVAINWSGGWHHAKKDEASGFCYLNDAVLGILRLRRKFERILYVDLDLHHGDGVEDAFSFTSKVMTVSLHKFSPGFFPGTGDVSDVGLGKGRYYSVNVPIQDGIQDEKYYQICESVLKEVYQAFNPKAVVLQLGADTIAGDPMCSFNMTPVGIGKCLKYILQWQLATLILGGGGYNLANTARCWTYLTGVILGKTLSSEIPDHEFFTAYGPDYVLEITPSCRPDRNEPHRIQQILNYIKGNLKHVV

[11] = target: Histone deacetylase 3 (Homo sapiens, UniProt O15379); assay: Inhibition of HDAC3 (unknown origin) by fluorescence based assay
[12] = target: Histone deacetylase 4 (Homo sapiens, UniProt P56524); assay: Inhibition of HDAC4 (unknown origin) by fluorescence based assay
[13] = tested on: MV4-11; assay: Induction of apoptosis in human MV4-11 cells at 1000 nM after 24 hrs by flow cytometry relative to control; assay type: functional
[14] = target: T1, Bromodomain-containing protein 4; assay: Inhibition of BRD4 in human MV4-11 cells assessed as reduction in c-Myc expression measured after 24 hrs by Western blot analysis; assay type: cell-based; details: dose 10-1000 nM
[15] = tested on: MV4-11; assay: Induction of cell cycle arrest in human MV4-11 cells assessed as accumulation at G0/G1 phase at 1000 nM after 24 hrs by flow cytometry; assay type: functional, cell-based
[16] = target: T4, Protein deacetylase HDAC6 (Homo sapiens); assay: Inhibition of HDAC6 in human MV4-11 cells assessed as increase in acetylated alpha-tubulin at 1 uM incubated for 24 hrs by Western blot analysis; assay type: cell-based
[17] = target: T3, Histone deacetylase 1; assay: Inhibition of HDAC1 in human MV4-11 cells assessed as increase in acetylated H3 at 1 uM incubated for 24 hrs by Western blot analysis; assay type: cell-based
[18] = target: T1, Bromodomain-containing protein 4; assay: Inhibition of BRD4 in human MV4-11 cells assessed as upregulation of p21 expression at 10 to 1000 nM measured after 24 hrs by Western blot analysis; assay type: cell-based; details: dose 10-1000 nM

Chain of Histone deacetylase 3 (O15379 whole entry): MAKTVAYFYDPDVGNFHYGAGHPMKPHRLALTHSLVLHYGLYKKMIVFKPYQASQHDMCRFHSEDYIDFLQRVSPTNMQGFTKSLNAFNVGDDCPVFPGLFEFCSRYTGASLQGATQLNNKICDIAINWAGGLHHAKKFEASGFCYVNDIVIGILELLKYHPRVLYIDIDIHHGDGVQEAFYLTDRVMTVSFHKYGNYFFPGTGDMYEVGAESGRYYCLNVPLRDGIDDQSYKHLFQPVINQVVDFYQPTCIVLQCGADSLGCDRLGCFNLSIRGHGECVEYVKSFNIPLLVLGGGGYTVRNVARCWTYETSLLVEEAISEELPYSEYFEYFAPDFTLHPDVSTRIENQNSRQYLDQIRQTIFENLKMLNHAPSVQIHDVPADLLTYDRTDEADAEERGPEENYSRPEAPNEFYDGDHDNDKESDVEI
T3 sequence (Q13547 whole entry): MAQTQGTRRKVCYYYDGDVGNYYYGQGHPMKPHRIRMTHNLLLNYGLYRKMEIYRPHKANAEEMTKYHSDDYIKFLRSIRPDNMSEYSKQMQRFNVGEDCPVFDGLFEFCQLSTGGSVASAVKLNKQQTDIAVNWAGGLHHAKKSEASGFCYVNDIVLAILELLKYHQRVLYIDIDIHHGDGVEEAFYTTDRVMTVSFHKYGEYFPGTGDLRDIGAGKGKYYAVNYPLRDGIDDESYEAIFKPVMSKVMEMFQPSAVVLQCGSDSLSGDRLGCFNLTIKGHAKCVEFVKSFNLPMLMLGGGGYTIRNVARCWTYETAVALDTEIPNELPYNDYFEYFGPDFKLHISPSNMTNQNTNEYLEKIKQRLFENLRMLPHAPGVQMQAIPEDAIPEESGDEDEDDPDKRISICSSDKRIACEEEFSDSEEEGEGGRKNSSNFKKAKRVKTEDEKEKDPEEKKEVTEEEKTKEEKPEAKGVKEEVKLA
Chain of Histone deacetylase 4 (P56524 whole entry): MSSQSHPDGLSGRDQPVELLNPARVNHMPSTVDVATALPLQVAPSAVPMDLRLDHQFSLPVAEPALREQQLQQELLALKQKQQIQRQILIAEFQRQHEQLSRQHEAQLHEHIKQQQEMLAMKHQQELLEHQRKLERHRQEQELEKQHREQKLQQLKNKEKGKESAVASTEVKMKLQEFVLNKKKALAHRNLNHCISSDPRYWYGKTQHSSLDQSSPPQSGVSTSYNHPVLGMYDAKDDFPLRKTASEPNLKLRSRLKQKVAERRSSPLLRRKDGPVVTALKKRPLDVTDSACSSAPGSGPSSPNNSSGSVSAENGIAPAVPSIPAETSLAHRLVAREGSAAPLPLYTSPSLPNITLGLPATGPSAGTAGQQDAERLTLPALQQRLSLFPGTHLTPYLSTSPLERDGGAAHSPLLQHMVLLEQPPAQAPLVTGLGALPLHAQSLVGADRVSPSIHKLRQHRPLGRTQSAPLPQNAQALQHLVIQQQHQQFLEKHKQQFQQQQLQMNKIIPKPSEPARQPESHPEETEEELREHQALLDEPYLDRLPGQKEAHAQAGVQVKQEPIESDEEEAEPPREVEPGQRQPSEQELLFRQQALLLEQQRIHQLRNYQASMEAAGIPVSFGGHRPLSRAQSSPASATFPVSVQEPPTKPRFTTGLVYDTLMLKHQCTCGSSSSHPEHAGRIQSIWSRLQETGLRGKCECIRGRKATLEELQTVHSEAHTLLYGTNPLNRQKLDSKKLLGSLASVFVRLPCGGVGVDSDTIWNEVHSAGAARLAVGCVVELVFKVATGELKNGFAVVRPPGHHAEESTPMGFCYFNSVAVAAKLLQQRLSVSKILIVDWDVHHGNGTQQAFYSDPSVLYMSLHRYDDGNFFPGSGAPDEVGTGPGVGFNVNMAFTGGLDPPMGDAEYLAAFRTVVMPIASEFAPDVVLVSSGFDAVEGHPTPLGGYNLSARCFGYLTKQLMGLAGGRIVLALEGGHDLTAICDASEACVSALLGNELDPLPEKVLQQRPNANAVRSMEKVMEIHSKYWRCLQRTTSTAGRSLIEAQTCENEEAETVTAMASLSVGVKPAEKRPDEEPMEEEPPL

Compound | IC50 [1] | IC50 [2] | IC50 [3] | inhibition [4] | Acetylated alpha-tubulin increase (active/not active) [5] | IC50 [6] | IC50 [7] | inhibition [8] | IC50 [9] | IC50 [10] | IC50 [11] | IC50 [12] | Activity [13] | inhibition [14] | Activity [15] | inhibition [16] | inhibition [17] | inhibition [18]
Cn1cc(-c2ccccc2Oc2ccccc2)c2cc(C(=O)NCc3ccc(C(=O)NO)cc3)[nH]c2c1=O | 42.1 nM | 15.3 nM | 11.3 nM | inactive | Active | 168 nM | 570 nM | Active | – | – | – | – | – | – | – | – | – | –
Cn1cc(-c2cc(C(C)(C)O)ccc2OC2CC2)c2cc(C(=O)NCc3ccc(C(=O)NO)cc3)[nH]c2c1=O | 252 nM | 7.9 nM | 6.9 nM | – | – | 20.8 nM | 420 nM | – | – | – | – | – | – | – | – | – | – | –
CC(C)Oc1ccc(C(C)(C)O)cc1-c1cn(C)c(=O)c2[nH]c(C(=O)NCc3ccc(C(=O)Nc4ccccc4N)cc3)cc12 | 5.6 nM | – | 2.1 nM | Active | – | 59.7 nM | 40 nM | – | > 10000 nM | > 10000 nM | 1440 nM | > 10000 nM | 57.31% | Active | – | – | – | –
CC(C)Oc1ccc(C(C)(C)O)cc1-c1cn(C)c(=O)c2[nH]c(C(=O)NCc3ccc(C(=O)NO)cc3)cc12 | 31.3 nM | 52 nM | 10 nM | – | – | 36 nM | 350 nM | – | – | – | – | – | – | – | – | – | – | –
Cn1cc(-c2ccccc2Oc2ccccc2)c2cc(C(=O)NCCCCCC(=O)NO)[nH]c2c1=O | 21.4 nM | 3.4 nM | 3.8 nM | – | – | 44.4 nM | 610 nM | Active | – | – | – | – | – | – | – | – | – | –
Cn1cc(-c2cc(C(C)(C)O)ccc2OC2CC2)c2cc(C(=O)NCCCCCCC(=O)NO)[nH]c2c1=O | 26.2 nM | 5.5 nM | 5.8 nM | – | – | 29.8 nM | 220 nM | – | – | – | – | – | – | – | – | – | – | –
Cc1cc(F)cc(C)c1Oc1ccc(C(C)(C)O)cc1-c1cn(C)c(=O)c2[nH]c(C(=O)NCCCCCCC(=O)NO)cc12 | 369 nM | 17.2 nM | 1.2 nM | – | Active | 228 nM | 300 nM | – | 2750 nM | 583 nM | 161 nM | > 10000 nM | 19.29% | Active | Active | – | – | –
CC(C)Oc1ccc(C(C)(C)O)cc1-c1cn(C)c(=O)c2[nH]c(C(=O)NCCCCCCC(=O)NO)cc12 | 29.5 nM | 5.4 nM | 6 nM | Active | Active | 19.4 nM | 160 nM | – | > 10000 nM | 99.6 nM | 36.4 nM | > 10000 nM | 53.73% | Active | – | – | – | –
Cn1cc(-c2cc(C(C)(C)O)ccc2Oc2ccc(F)cc2F)c2cc(C(=O)NCCCCCCC(=O)NO)[nH]c2c1=O | 54 nM | 8.7 nM | 7.2 nM | – | – | 52 nM | 250 nM | – | – | – | – | – | – | – | – | – | – | –
Cn1cc(-c2ccccc2Oc2ccccc2)c2cc(C(=O)NCCCCCCC(=O)NO)[nH]c2c1=O | 38.6 nM | 4.7 nM | 5.3 nM | – | – | 29.5 nM | 180 nM | Active | – | – | – | – | – | – | – | Active | Active | –
Cn1cc(-c2ccccc2Oc2ccccc2)c2cc(C(=O)NCCCCC(=O)NO)[nH]c2c1=O | 13.1 nM | 4 nM | 4.8 nM | – | inactive | 142 nM | 180 nM | Active | – | – | – | – | – | – | – | – | – | –
Cn1cc(-c2ccccc2Oc2ccccc2)c2cc(C(=O)NCCCC(=O)NO)[nH]c2c1=O | 142 nM | 144 nM | 103 nM | – | – | > 500 nM | 380 nM | – | – | – | – | – | – | – | – | – | – | –
Cn1cc(-c2ccccc2Oc2ccccc2)c2cc(C(=O)NCc3ccc(C(=O)Nc4ccccc4N)cc3)[nH]c2c1=O | 31.7 nM | > 500 nM | 18.7 nM | Active | inactive | 126 nM | 80 nM | Active | – | – | – | – | – | – | – | – | – | Active
